Common to all, as to assay type: cell-based
One data set deals with MBD3L2 RNA. Description: RNA isolation and qPCR to determine MBD3L2 RNA levels in FSHD cells. The note with it: 48 hrs. As to the method: Protocol for RNA Isolation and qPCR to Determine MBD3L2 RNA Levels The protocol describes the process of isolating RNA from cultured cells, converting the RNA to complementary DNA (cDNA), and measuring target gene expression using a quantitative polymerase chain reaction (qPCR). The seed FSHD cells were dispensed into a six-well dish. One day after seeding, the DUX4 inhibitor (11 μM or 3.6 μM/well) was added to the cells. After another 48 hrs, the old media was removed from the cells. The cells were washed with 2 mL of warm phosphate buffered saline (PBS). The PBS was aspirated, and the cells were lysed in each well with 350 μL of RLT buffer+3.5 μL of beta-mercaptoethanol (BME). The lysates were added to fresh, RNAse-free, labeled Eppendorf tubes. The cells were then physically disrupted for […] at level 4 of the bead disrupter to ensure the release of the RNA. The RNA was collected according to standard procedures (i.e., Qiagen kit instructions) as discussed below. The RNA concentrations were standardized to […]. In a PCR tube, RNA (2 μg) in a new Eppendorf tube was diluted with RNase-free water to a 9.5 μL final volume of […] RNA. DNase was used to remove any DNA contamination. A DNase Master Mix was prepared from 1.5 μL/reaction DNase solution (1 unit/μL, Promega), 3 μL/reaction 5× RT buffer (i.e., 250 mM Tris-HCl (pH 8.3), 375 mM KCl, 15 mM MgCl2, and 500 μl 0.1 M DTT; Promega MMLV), and 1 μL/reaction RNase inhibitor solution (RNasin, 40 units/μL, Promega). The DNase Master Mix was added to the standardized RNA samples (5.5 μL/sample). The samples were mixed by agitation and briefly spun down by centrifuge. The samples were heated to 37° C. for 60 min, 80° C. for 5 min, and then cooled to 4° C. The samples were stored on ice until the addition of the next reagents. An RT Reaction Master Mix was prepared from 5 μL/reaction 5× RT buffer, 2 μL/reaction dNTP solution (2.5 mM in each nucleotide), 1 μL/reaction RNase inhibitor solution (RNasin, 40 units/μL, Promega), 1.6 μL/reaction M-MLV reverse transcriptase (200 units/μL, Promega), and 13.4 μL/reaction deionized, RNase-free water. The RT Reaction Master Mix was cooled on ice until use. A 50 μM solution of Random Primer 6 random hexanucleotides (2 μL) was added to each sample. The samples were mixed by agitation and briefly spun down by centrifuge. The samples were heated to 70° C. for 5 min and then cooled to 4° C. The RT Reaction Master Mix (23 μL) was added to each sample. The samples were mixed by agitation and briefly spun down by centrifuge. To convert the RNA to cDNA, the samples were heated to 42° C. for 60 min, 95° C. for 5 min, and then cooled to 4° C. The cDNA product mixture was diluted 5:1 with deionized water (40 μL+160 μL). The samples were run in triplicate, with a methyl-CpG-binding protein 3-like 2 (MBD3L2) target primer and a eukaryotic translation elongation factor 1-alpha (EEF1A) control primer. An qPCR Master Mix was prepared for each primer and stored on ice (4° C.) until use. The qPCR Master Mix included 10 μL/reaction SYBR Green Mix (2×) (ThermoFisher), 1 μL/reaction of the primer mix (i.e., the MBD3L2 PCR Primer mix or the EEF1A Primer mix), and 4 μL/reaction deionized, RNase-free water. To set up the qPCR plate, 15 μL of the appropriate qPCR Master Mix was added to the appropriate wells for each target/primer. After all the targets/primers have been added to the wells, 5 μL of the sample was added to the corresponding wells so that each well is 20 μL total. The plate was covered with a clear sheet. An qPCR run was set up (QuantStudio 5) with the following cycle: […]
For orientation: Quantitative PCR measures a nucleic acid by following its amplification.

Data set [1] can be described thus: Cell cytotoxicity 50 assay (CC50), MB200 cells, cell titer glo. To be noted: human. An outline of the steps: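 Luminescence from CellTiter-Glo after 72 h of compound exposure at 37 °C gave the CC50 for MB200 cells. These were plated at 10 k cells/well in triplicate in supplemented F10 medium and treated with a serial dilution series prepared from a 10 mM stock.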

The nature of data set [2]: Cell cytotoxicity 50 assay (CC50), HEK cells. To be noted: human. An outline of the steps: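 CC50 was fitted from total luminescence, measured 5 min after adding CellTiter-Glo reagent to HEK cells. The cells had been exposed for 72 h at 37 °C to medium serial dilutions prepared from a 10 mM drug solution.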

In the case of `CC(=O)NC1CCC(C(=O)Nc2ccc(-c3nc4ccccc4s3)cc2)C1` (stereo not drawn) [Compound 85], in the data set with MBD3L2 RNA, the “qPCR MBD3L2 Inhib at 11 µM” value is given as “YES”. Besides, the CC50 at 72 h in data set [1] and in data set [2] was more than 10 µM each time.
In the case of `CC(=O)NC1CC(C(=O)Nc2ccc(-c3nc4ccccc4s3)cc2)C1` (stereo not drawn) [Compound 86], the “qPCR MBD3L2 Inhib at 11 µM” value with MBD3L2 RNA is given as “YES”. The CC50 at 72 h in data set [1] and in data set [2] was more than 10 µM throughout.
In the case of `CC(=O)NCCCC(=O)Nc1ccc(C(C)(C)c2nc3ccccc3s2)cc1` [Compound 87], the “qPCR MBD3L2 Inhib at 11 µM” value with MBD3L2 RNA was “YES”. For the same compound, the CC50 at 72 h in data set [1] and in data set [2] was more than 10 µM each time.
For the compound `O=C(CCCN1C(=O)CCC1=O)Nc1ccc(-c2nc3c(s2)CCCC3)cc1` [Compound 88], the “qPCR MBD3L2 Inhib at 11 µM” value in the data set with MBD3L2 RNA is “YES”. The CC50 at 72 h in data set [1] and in data set [2] was more than 10 µM throughout.
As for `O=C(CCCN1C(=O)CCC1=O)NCc1ccc(-c2nc3ccccc3s2)cc1` [Compound 93], the “qPCR MBD3L2 Inhib at 11 µM” value with MBD3L2 RNA was “YES”. Moreover, the CC50 at 72 h in data set [1] and in data set [2] was more than 10 µM in each case.
Consider `O=C(Nc1ccc(-c2nc3ccccc3s2)cc1)C1CCC(N2C(=O)CCC2=O)C1` (stereo not drawn) [Compound 94], for which, in the data set on MBD3L2 RNA, the “qPCR MBD3L2 Inhib at 11 µM” value is “YES”. Further, the CC50 at 72 h in data set [1] and in data set [2] was more than 10 µM each time.
With `CC(=O)NCCC(=O)Nc1ccc(-c2nc3cc(C#N)ccc3s2)cc1` [Compound 103], the “qPCR MBD3L2 Inhib at 11 µM” value in the data set on MBD3L2 RNA is given as “YES”. The CC50 at 72 h in data set [1] and in data set [2] was more than 10 µM throughout.
In the case of `CC(=O)NC(C)(C)/C=C/C(=O)Nc1ccc(-c2nc3ccccc3s2)cc1` [Compound 104], the “qPCR MBD3L2 Inhib at 11 µM” value in the data set on MBD3L2 RNA is recorded as “YES”. In addition, the CC50 at 72 h in data set [1] and in data set [2] was more than 10 µM in each case.
For `CC(=O)NCCCC(=O)NCc1ccc(-c2nc3ccccc3s2)cc1` [Compound 105], in the data set on MBD3L2 RNA, the “qPCR MBD3L2 Inhib at 11 µM” value is given as “YES”. Also, the CC50 at 72 h in data set [1] and in data set [2] was more than 10 µM in each case.
For the compound `O=C(CCCN1CCCC1=O)NCc1ccc(-c2nc3ccccc3s2)cc1` [Compound 109], the “qPCR MBD3L2 Inhib at 11 µM” value in the data set on MBD3L2 RNA is reported as “YES”. The CC50 at 72 h in data set [1] and in data set [2] was more than 10 µM in each case.
Take `CC(=O)NCCNC(=O)Cc1ccc(-c2nc3cc(F)ccc3s2)cc1` [Compound 111]: the “qPCR MBD3L2 Inhib at 11 µM” value with MBD3L2 RNA is “YES”. Besides, the CC50 at 72 h in data set [1] and in data set [2] was more than 10 µM in each case.
As to `O=C(CCCN1CCCC1=O)Nc1ccc(-c2nc3cc(F)ccc3s2)cc1` [Compound 116], the “qPCR MBD3L2 Inhib at 11 µM” value in the data set with MBD3L2 RNA is “YES”. Also, the CC50 at 72 h in data set [1] and in data set [2] was more than 10 µM throughout.
In the case of `CC(=O)NCCCC(=O)Nc1ccc(-c2nc3ccccc3s2)c(C)c1` [Compound 129], in the data set with MBD3L2 RNA, the “qPCR MBD3L2 Inhib at 11 µM” value was “YES”. Also, the CC50 at 72 h in data set [1] and in data set [2] was more than 10 µM throughout.
Consider `CC(=O)NCCCC(=O)Nc1ccc(-c2nc(-c3ccccc3)cs2)cc1` [Compound 130], for which the “qPCR MBD3L2 Inhib at 11 µM” value in the data set with MBD3L2 RNA is listed as “YES”. The CC50 at 72 h in data set [1] and in data set [2] was more than 10 µM in each case.
For `O=C(CCCCc1cccnc1)Nc1ccc(-c2nc3ccccc3s2)cc1` [Compound 140], the “qPCR MBD3L2 Inhib at 11 µM” value in the data set on MBD3L2 RNA was “YES”. For the same compound, the CC50 at 72 h in data set [1] and in data set [2] was more than 10 µM throughout.
Regarding `CN(C(=O)CCCN1C(=O)CCC1=O)c1ccc(-c2nc3ccccc3s2)cc1` [Compound 141], the “qPCR MBD3L2 Inhib at 11 µM” value in the data set on MBD3L2 RNA was “YES”. The CC50 at 72 h in data set [1] is more than 10 µM; in data set [2] it was 1 to 10 µM.
Turning to `CC(=O)NCCCC(=O)N(C)c1ccc(-c2nc3ccccc3s2)cc1` [Compound 142], the “qPCR MBD3L2 Inhib at 11 µM” value with MBD3L2 RNA was “YES”. The CC50 at 72 h in data set [1] and in data set [2] was more than 10 µM each time.
For `CC(=O)NCCCC(=O)N(C)c1ccc(-c2nc3cc(F)ccc3s2)cc1` [Compound 145], the “qPCR MBD3L2 Inhib at 11 µM” value with MBD3L2 RNA is “YES”. Besides, the CC50 at 72 h in data set [1] and in data set [2] was more than 10 µM each time.
Regarding `O=C(CCCc1cccnc1)Nc1ccc(-c2nc3cc(F)ccc3s2)cc1` [Compound 155], in the data set with MBD3L2 RNA, the “qPCR MBD3L2 Inhib at 11 µM” value is listed as “YES”. In addition, the CC50 at 72 h in data set [1] is more than 10 µM; in data set [2], 1 to 10 µM.
For `O=C(CCCc1cccnc1)Nc1ccc(-c2nc3ccccc3s2)nc1` [Compound 156], in that order: “YES”, more than 10 µM and more than 10 µM.
On to `O=C(CCCCN1C(=O)CCC1=O)Nc1ccc(-c2nc3ccccc3s2)o1` [Compound 167], for which the “qPCR MBD3L2 Inhib at 11 µM” value in the data set with MBD3L2 RNA is given as “YES”. Also, the 50% cytotoxic concentration (CC50) at 72 h in data set [1] and in data set [2] was more than 10 µM in each case.
For the compound `CC(=O)NCCCC(=O)Nc1ccc(CCc2nc3ccccc3s2)cc1` [Compound 174], the “qPCR MBD3L2 Inhib at 11 µM” value in the data set on MBD3L2 RNA is reported as “YES”. In addition, the CC50 at 72 h in data set [1] and in data set [2] was more than 10 µM each time.
Turning to `CC(=O)NCCCCC(=O)Nc1ccc(-c2nc3ccccc3s2)o1` [Compound 175], in the data set with MBD3L2 RNA, the “qPCR MBD3L2 Inhib at 11 µM” value is recorded as “YES”. Besides, the CC50 at 72 h in data set [1] and in data set [2] was more than 10 µM each time.
Consider `CC(=O)N[C@H]1CC[C@H](C(=O)Nc2nc3ccccc3s2)C1` [Compound 184], for which the “qPCR MBD3L2 Inhib at 11 µM” value with MBD3L2 RNA is “YES”. Besides, the CC50 at 72 h in data set [1] and in data set [2] was more than 10 µM in each case.

The term CC50 denotes the concentration at which the toxic effect on the cells reaches its halfway point. A lower CC50 goes with harm at low concentration.
